We go through ten compounds from ChEMBL document CHEMBL1201862, “PubChem BioAssay data set” (2004).

Some test systems named below: OVCAR-5; A549; DU-145; SF-268; U-251; NCI-H23; MDA-MB-231; MOLT-4; SNB-19; COLO 205; OVCAR-8; SN12C; SK-MEL-2; SK-MEL-28; KM12; ACHN; NCI-H226; SF-539; MDA-MB-435.
Holding throughout (assay): NCI tumour cell line growth inhibition, 48 h

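48-hour exposure; five concentrations; linearly interpolated endpoints. GI50 = concentration required for 50% inhibition of growth.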 Calls of active or inactive are those of the source. Rule as the data show it: active = GI50 up to about 1.1 µM and inactive = higher. Where only a bound is given, the exact number is not on record here.

For `OC[C@H](O)[C@@H](OCc1ccccc1)[C@H](NCc1ccccc1)c1cccs1`, the GI50 with OVCAR-5 was > 100 µM (inactive); in the assay with A549 it was > 100 µM (inactive); in the assay on DU-145 it was > 100 µM (inactive); in the assay on SF-268, 4.11 µM (inactive); with U-251, > 100 µM (inactive); with NCI-H23 it was 55.7 µM (inactive). Also, the GI50 is > 100 µM (inactive) in the assay on MDA-MB-231; > 100 µM (inactive) in the assay with MOLT-4; 21.4 µM (inactive) in the assay on SNB-19; > 100 µM (inactive) with COLO 205; > 100 µM (inactive) in the assay on OVCAR-8; > 100 µM (inactive) in the assay with SN12C. Also, the GI50 with SK-MEL-2, in the assay on SK-MEL-28, in the assay on KM12, with ACHN, with NCI-H226 and in the assay with SF-539 was > 100 µM (inactive) throughout. The GI50 in the assay on MDA-MB-435 was > 100 µM (inactive).
Consider `CC[C@H]1C=CCC[C@@]2(C[C@@H]3CC[C@@H]4[C@H](C(=O)OCCCCCCCCCCCCCCCC(=O)N(CCCN)C[C@@H](O)CCN)[C@]5(CCC[C@@H](C)O5)NC(=[N+]34)N2)O1`, for which the GI50 is 0.083 µM (active) in the assay with OVCAR-5; 0.282 µM (active) in the assay on A549; 0.731 µM (active) with DU-145; 0.544 µM (active) with SF-268; 0.381 µM (active) in the assay on U-251; 0.92 µM (active) with NCI-H23. Also, the GI50 in the assay with MDA-MB-231 was 0.748 µM (active); with MOLT-4, 0.0869 µM (active); in the assay on SNB-19 it was 0.0822 µM (active); in the assay with COLO 205, 0.316 µM (active); in the assay with OVCAR-8 it was 0.451 µM (active); in the assay on SN12C it was 0.766 µM (active). In addition, the GI50 is 0.229 µM (active) with SK-MEL-2; 1.27 µM (inactive) in the assay on SK-MEL-28; 0.447 µM (active) in the assay with KM12; 0.349 µM (active) with ACHN; 0.968 µM (active) in the assay on NCI-H226; 0.556 µM (active) in the assay with SF-539. Moreover, the GI50 with MDA-MB-435 is 0.0524 µM (active).
Regarding `O=C(O)c1cccc(S(=O)(=O)NN2C(=O)CSC2c2ccccc2Cl)c1` (stereo not given), the GI50 in the assay on OVCAR-5, in the assay with A549, in the assay with DU-145, in the assay with SF-268, in the assay on U-251 and in the assay on NCI-H23 was > 100 µM (inactive) throughout. Besides, the GI50 in the assay on MDA-MB-231, in the assay on MOLT-4, in the assay on SNB-19, in the assay on COLO 205, in the assay on OVCAR-8 and in the assay on SN12C was > 100 µM (inactive) each time. Besides, the GI50 in the assay with SK-MEL-2 was > 100 µM (inactive); in the assay with SK-MEL-28, > 100 µM (inactive); with KM12, > 100 µM (inactive); with ACHN, > 100 µM (inactive); in the assay on NCI-H226, 58.3 µM (inactive); with SF-539, > 100 µM (inactive). Besides, the GI50 in the assay with MDA-MB-435 is > 100 µM (inactive).
`CCN(CC)c1ccc(/C=c2\nc(-c3ccccc3)n3c2nc2ccccc23)cc1`: the GI50 is 77.3 µM (inactive) in the assay on OVCAR-5; 6.21 µM (inactive) with A549; 26.8 µM (inactive) in the assay with DU-145; 26.5 µM (inactive) in the assay with SF-268; 2.1 µM (inactive) in the assay with U-251; 20 µM (inactive) with NCI-H23. The GI50 was 14.8 µM (inactive) in the assay with MDA-MB-231; 1.63 µM (inactive) in the assay with MOLT-4; 83.8 µM (inactive) in the assay with SNB-19; 5.14 µM (inactive) in the assay on COLO 205; 9.79 µM (inactive) with OVCAR-8; 16.8 µM (inactive) in the assay on SN12C. The GI50 with SK-MEL-2 is 15.4 µM (inactive); with SK-MEL-28, 0.0231 µM (active); in the assay with KM12, 6.47 µM (inactive); in the assay on ACHN, 15 µM (inactive); with NCI-H226 it was 14.5 µM (inactive); in the assay with SF-539 it was 1.48 µM (inactive). Further, the GI50 in the assay on MDA-MB-435 is 8.71 µM (inactive).
Consider `Cc1nc(SCC(=O)Nc2ccccc2)c2sc(=S)n(-c3ccccc3)c2n1`, for which the GI50 with OVCAR-5 was > 10 µM (inactive); in the assay with A549, > 10 µM (inactive); in the assay on DU-145, > 10 µM (inactive); with SF-268, > 10 µM (inactive); with U-251, 8.87 µM (inactive); in the assay on NCI-H23 it was > 10 µM (inactive). Moreover, the GI50 with MDA-MB-231 was 6.18 µM (inactive); with MOLT-4, > 10 µM (inactive); with SNB-19 it was 8.41 µM (inactive); in the assay on COLO 205, > 10 µM (inactive); in the assay on OVCAR-8, 9.12 µM (inactive); in the assay on SN12C, > 10 µM (inactive). Also, the GI50 in the assay on SK-MEL-2 is > 10 µM (inactive); with SK-MEL-28, > 10 µM (inactive); in the assay with KM12, > 10 µM (inactive); in the assay with ACHN, > 10 µM (inactive); in the assay on NCI-H226 it was 2.9 µM (inactive); in the assay with SF-539, 4.44 µM (inactive). Besides, the GI50 in the assay with MDA-MB-435 was > 10 µM (inactive).
For `O=C1c2ccccc2C(=O)c2c1oc(=O)c1ccccc21`, the GI50 with OVCAR-5 is 6.03 µM (inactive); in the assay on A549, 7.46 µM (inactive); in the assay with DU-145 it was 5.46 µM (inactive); with SF-268, 4.34 µM (inactive); in the assay on U-251, 2.96 µM (inactive); in the assay on NCI-H23, 4.23 µM (inactive). The GI50 was 3.74 µM (inactive) with MDA-MB-231; 3.79 µM (inactive) in the assay with MOLT-4; 8.75 µM (inactive) in the assay on SNB-19; 9.71 µM (inactive) in the assay on COLO 205; 2 µM (inactive) in the assay with OVCAR-8; 3.49 µM (inactive) in the assay on SN12C. Also, the GI50 in the assay with SK-MEL-2 is 4.84 µM (inactive); in the assay on SK-MEL-28 it was 6.5 µM (inactive); with KM12, 5.51 µM (inactive); in the assay with ACHN, 4.59 µM (inactive); with NCI-H226 it was 8.93 µM (inactive); in the assay on SF-539, 10.7 µM (inactive). Further, the GI50 in the assay on MDA-MB-435 is 1.06 µM (active).
As for `Cc1ccsc1C(=S)Nc1ccc(Cl)c(C(=O)OC(C(C)C)C(C)C)c1`, the GI50 in the assay with OVCAR-5 is 57.9 µM (inactive); in the assay with A549, 12.2 µM (inactive); with DU-145, 33 µM (inactive); in the assay on SF-268 it was 40.8 µM (inactive); in the assay with U-251, 24.4 µM (inactive); with NCI-H23, 13.5 µM (inactive). Also, the GI50 is 17.2 µM (inactive) with MDA-MB-231; 5.51 µM (inactive) with MOLT-4; 25.5 µM (inactive) in the assay with SNB-19; 12.9 µM (inactive) in the assay on COLO 205; 21.3 µM (inactive) in the assay on OVCAR-8; 24.8 µM (inactive) with SN12C. Also, the GI50 in the assay on SK-MEL-2 is 11.7 µM (inactive); with SK-MEL-28, 27.1 µM (inactive); in the assay with KM12 it was 20 µM (inactive); with ACHN, 25.9 µM (inactive); in the assay with NCI-H226 it was 29 µM (inactive); with SF-539 it was 39.6 µM (inactive). Also, the GI50 in the assay with MDA-MB-435 is 17.7 µM (inactive).
`CC(C)OC(=O)C(NC(=O)C(CC(=O)OCc1ccccc1)NC(=O)OCc1ccccc1)NC(=O)C1C(C)(C)CCC1(C)C` (stereo not given): the GI50 was 14.8 µM (inactive) with OVCAR-5; 2.22 µM (inactive) in the assay on A549; 22.9 µM (inactive) in the assay on DU-145; 15 µM (inactive) in the assay with SF-268; 2.14 µM (inactive) with U-251; 10.2 µM (inactive) in the assay on NCI-H23. Moreover, the GI50 in the assay on MDA-MB-231 is 2.1 µM (inactive); in the assay with MOLT-4, 8.04 µM (inactive); with SNB-19, 4.29 µM (inactive); in the assay on COLO 205, 2.99 µM (inactive); with OVCAR-8 it was 2 µM (inactive); in the assay on SN12C it was 3.84 µM (inactive). Also, the GI50 in the assay on SK-MEL-2 was 19.5 µM (inactive); in the assay on SK-MEL-28, > 42 µM (inactive); in the assay with KM12, 9.02 µM (inactive); in the assay on ACHN, 3.56 µM (inactive); in the assay on NCI-H226, 7.21 µM (inactive); in the assay on SF-539 it was 2.81 µM (inactive). Moreover, in the assay on MDA-MB-435, the GI50 was 23.8 µM (inactive).
As to `CC12CCC(C(=O)n3c1nc1ccccc13)C(C)(C)O2` (stereo not given), the GI50 with OVCAR-5, with A549, in the assay on DU-145, in the assay on SF-268, in the assay on U-251 and with NCI-H23 was > 100 µM (inactive) each time. The GI50 in the assay on MDA-MB-231, in the assay with MOLT-4, in the assay on SNB-19, in the assay on COLO 205, in the assay on OVCAR-8 and in the assay with SN12C was > 100 µM (inactive) each time. The GI50 with SK-MEL-2, in the assay with SK-MEL-28, with KM12, in the assay with ACHN, with NCI-H226 and in the assay with SF-539 was > 100 µM (inactive) throughout. Further, the GI50 with MDA-MB-435 is > 100 µM (inactive).
As to `O=C1C(CN2CCCCC2)CCC1CN1CCCCC1` (stereo not given), the GI50 was 11.4 µM (inactive) with OVCAR-5; > 96.6 µM (inactive) in the assay with A549; > 88.5 µM (inactive) with DU-145; 49.8 µM (inactive) in the assay with SF-268; > 46.7 µM (inactive) in the assay with U-251; 23.1 µM (inactive) with NCI-H23. Further, the GI50 with MDA-MB-231 is 20.2 µM (inactive); with MOLT-4, 2.22 µM (inactive); in the assay with SNB-19, > 100 µM (inactive); in the assay with COLO 205, 14.7 µM (inactive); in the assay on OVCAR-8 it was 26.8 µM (inactive); in the assay on SN12C it was 30.4 µM (inactive). The GI50 is 30.1 µM (inactive) with SK-MEL-2; 20 µM (inactive) in the assay with SK-MEL-28; > 54.7 µM (inactive) in the assay on KM12; 26 µM (inactive) in the assay with ACHN; > 96.6 µM (inactive) in the assay with NCI-H226; 30.6 µM (inactive) in the assay with SF-539. Further, in the assay with MDA-MB-435, the GI50 was 33 µM (inactive).
